Measurements published in patent US10076511B2, “Bisamide derivative of dicarboxylic acid as an agent for stimulating tissue regeneration and recovery of diminished tissue function” (TREAMID GmbH, priority 2015, dated 2018).
Several values for one entry are separate records, joined by “and”; a condition that tells them apart may be missing. Equal entries are not always repeated.

Experiments:
[1] = system: male C57BL/6 mice; experiment: Fertility of male mice on a metabolic syndrome model; format: in vivo, mouse
Protocol: Metabolic disorders were simulated as follows: on Day 2 after birth, male C57Bl/6 mice were injected with streptozotocin at a dose of 200 mg/kg, once, subcutaneously in the withers area, and the volume of the injected solution was 30 μl. From week 4 after birth, the animals were transferred to a high-fat diet. For this purpose, the used feed was enriched with heavy saturated fats (30% fat) (Siff EF R/M with 30% Fat Cat No. E15116-34, Germany). The animals were held on the high-fat diet for 42 days (from Day 28 to Day 70 of the study). Treamid was administered at a dose of 10 mg/kg intragastrically once daily, every day from Day 49 to Day 80 of the experiment. The control animals received the equivalent volume of a solvent, instead of the test compound.
The fertility of the males was estimated as follows: intact females were placed to the males of the experimental groups in a ratio of 1:2 for a period of from Day 70 to Day 80 of the study. During this period, the males of the experimental group continued to be administered intragastrically Treamid once daily at a dose of 10 mg/kg.
At the end of the mating period, on Day 80 of the study, the males were euthanized in a CO2 chamber. The blood of the animals was taken and analyzed for serum levels of free testosterone by enzyme immunoassay. Euthanasia was performed in the morning hours from 9:30 to 11:00.
The females were sacrificed in the CO2 chamber on Day 18 of pregnancy. The fetuses in the uterus were examined. The fertility index (FI) was calculated to assess fertility: FI=number of fertilized females/number of females placed with males×100%.

[2] = system: male Wistar rats; experiment: Metabolic syndrome model in rats (cafeteria diet); format: in vivo, rat
Description: Metabolic syndrome was simulated in male Wistar rats (260-280 g) by keeping animals on a high-fat diet (“cafeteria diet”) for 12 weeks. The “cafeteria diet” was balanced according to Current Protocols in Pharmacology [Current Protocols in Pharmacology (2005) Animal Models of Disease//Contributed by Petter Hedlund, Kenshi Matsumoto, and Karl-Erik Andersson]. The diet contained 25-35% of fats and 25-30% of digestible carbohydrates in addition to the standard diet of rodents. Treamid was administered at a dose of 0.5 mg/kg intragastrically once daily, every day from Week 7 to Week 11 of the diet. Reference drug Metformin was administered at a dose of 200 mg/kg intragastrically according to the same regimen.
The development of pathology and a therapeutic effect of Treamid were estimated by the following parameters: blood biochemical parameters (glucose, cholesterol, triglycerides (TG), HDL, LDL, atherogenicity index), glucose tolerance test, visceral fat weight, total number and percentage of motile sperm forms.
Glucose was determined with an OneNouch Select glucometer (Switzerland).
The levels of triglycerides, TCh and HDL were determined by using a diagnostic kit (Olvex Diagnosticum, Russia).
The level of LDL was determined by the formula 2. LDL=TCh−(HDL+TG/2.2) (1),
The atherogenicity index (AI) was calculated by the formula 3. AI=(TCh−HDL)/HDL (2),
The atherogenicity index was calculated for each animal individually, and then the arithmetic mean value of the group was calculated.
For the analysis of sperm, the animals were anesthetized with intraperitoneal injection of a mixture of Zolletil and Xyla (0.2 ml of Zoletil+0.8 ml Xyla) in a volume of 70 μl/100 g of weight. Epididymis was isolated. The epididymis head was cut off from the tail, weighed, 5 incisions were made (to improve the sperm yield), and placed in a tube containing 10 ml of phosphate buffered saline heated to 37° C. The tube was held at 37° C. for 10 minutes. Then, the tube was shaken on a shaker, 20 μl of the liquid was taken, applied to a glass slide heated to 37° C., and the number of motile sperm cells was assessed under a microscope. The calculation was performed up to 100 sperm cells.
The total number of sperm cells in a test tube with epididymis was calculated as follows: 20 μl of the liquid was taken after shaking and added to a tube containing 400 μl of physiological saline. After shaking the tubes, their contents (20 μl) were taken out and introduced into Goryaev chamber. The number of sperm cells was counted in 100 large squares. The number of sperm cells in the head of epididymis was calculated by the formula: Number of sperm cells=number of sperm cells in 100 large squares of Goryaev chamber*0.525(factor from the calculation of the dilution and the volume of Goryaev chamber)/weight of the epididymis head.

[3] = Treamid 0.5 mg/kg, Metformin 200 mg/kg intragastrically Week 7-11 of high-fat diet
[4] = high-fat diet for 12 weeks, Treamid 0.5 mg/kg, Metformin 200 mg/kg
[5] = high-fat diet, Treamid 0.5 mg/kg, Metformin 200 mg/kg

## O=C(CCCC(=O)NCCc1ncc[nH]1)NCCc1ncc[nH]1 [Treamid]
[1]; 10 mg/kg, Day 80
  increase of free testosterone in the blood serum in comparison with intact animals: 16%
  increase of free testosterone in the blood serum in comparison with the pathological control: 2 times
[1]; Day 80, Treamid 10 mg/kg intragastrically Day 49-80
  Free testosterone in the blood serum (pg/ml): 3.46 ± 1.87*• pg/ml
[1]; Treamid 10 mg/kg Day 49-80
  fertility index relative to untreated metabolic disorders (pathological control): 1.8 times
[1]; mating Day 70-80, Treamid 10 mg/kg Day 49-80
  Fertility index, %: 55*• %
[2]; 3 weeks after the drug administration, Treamid 0.5 mg/kg, Metformin 200 mg/kg
  Glucose level in the blood of male rats, mmol/L: 6.5 ± 0.2*& mmol/L
[2]; 5 weeks after the drug administration, Treamid 0.5 mg/kg, Metformin 200 mg/kg
  Glucose level in the blood of male rats, mmol/L: 7.8 ± 0.2*& mmol/L
[2]; [3]
  Relative weight of visceral fat, Fat near the intestine: 0.94 ± 0.07 % based on body weight
  Relative weight of visceral fat, Fat near the kidneys: 0.48 ± 0.05& % based on body weight
  Relative weight of visceral fat, Fat near the testes: 1.03 ± 0.14 % based on body weight
  Relative weight of visceral fat, Total fat: 2.46 % based on body weight
[2]; Treamid 0.5 mg/kg, Metformin
  reduction of visceral fat weight gain in comparison with the control group: 1.3 times
[2]; before administration of drugs (Week 6 of diet)
  Glucose level in the blood of male rats: 6.4 ± 0.2 mmol/L
[2]; [4]
  HDL, mM/l: 1.9±0.2 mM/l and 1.9 ± 0.2& mM/l
  LDL, mM/l: 1.2 ± 0.2 mM/l
  Total cholesterol, mM/l: 3.5 ± 0.1 mM/l
  Triglycerides, mM/l: 0.9 ± 0.1 mM/l
[2]; [5]
  Percentage of motile sperm forms: 34.43 ± 3.15& %
  Total number of sperm cells: 260.0 ± 38.7&
[2]; one week after the drug withdrawal, Treamid 0.5 mg/kg, Metformin 200 mg/kg
  Glucose level in the blood of male rats, mmol/L: 8.3 ± 0.7& mmol/L
[2]; vs. high-fat diet control
  increase of the percentage of motile sperm forms: 1.5 times
  increase of the total number of sperm cells: 1.7 times
